Literature values in PMC7992120 (Nature chemical biology, 2018).

Experiments:
[1] = system: human bradykinin 1 receptor (B1R); settings: for affinity for B1R of peptides lacking N-terminal lysine (in words): no reference at the sentence (Fig. 1)
[2] = system: human bradykinin 2 receptor (B2R); settings: for affinity for B2R (in words): agonist
[3] = system: B2R, "these residues" replaced by alanine or positively charged amino acids; settings: replacement by alanine or positively charged amino acids
[4] = system: dog B1R; settings: D^7.29 replaced by Asn

Row | Substance | affinity for B2R, Figure 1 legend (in words) [2] | affinity for B2R (in words) [2] | affinity for B1R of peptides lacking N-terminal lysine (in words) ([1]; human B1R) | other results
1 | KRPPGFSPL [DALK] | – | – | – | B1R antagonism / affinity (in words) ([1]; B1R antagonist): high-affinity antagonist for B1R
2 | bradykinin (RPPGFSPFR; Bradykinin; UniProt P01042 381-389, looked up) [BK] | high-affinity ligands for B2R | high-affinity agonists | rather low affinity to the B1R | BK binding of mutant (in words) [3]: substantially impairs BK binding in B2R
3 | desArg^9-bradykinin [DABK] | – | – | rather low affinity to the B1R | affinity for B2R of desArg peptides (in words) [2]: only weak binding affinity to the B2R; affinity for B1R, Figure 1 legend (in words) ([1]; human B1R): not DABK, binds with high affinity to B1R; selectivity between DAKD and DABK (in words) [4]: no significant selectivity between DAKD and DABK
4 | kallidin [KD] | high-affinity ligands for B2R | high-affinity agonists | – | –
